We go through 16 molecules from patent publication US8324197B2, “Transplatinum complexes with N2O2 donor sets as cytotoxic and antitumor agents” (Virginia Commonwealth University, priority 2005, dated 2012).

Read-outs that look alike come from different tables or passages of the source.

As usually defined, the IC50 is the concentration that inhibits the measured activity by half. High values mean a need for much substance, low ones inhibition by little substance.

The conditions of data set [1]: cited from earlier work; for k1, first hydrolysis step to the monoaqua complex: analogous dichloride complexes, I=0.1 M.
The nature of data set [2]: Initial hydrolysis of TPA carboxylates monitored by HPLC at 37° C. The conditions noted are these: H2O; for hydrolysis occurring after 9 h: HPLC; for k1, initial hydrolysis rate constant: I=0.02 M. In kind it is physicochemical. How it is done: The slowest initial hydrolysis rate was found for complex 2c t-[Pt(OAc)2(NH3)(2-pic)], with just 4% hydrolysis occurring after 9 h. The hydrolysis of the formate complex 4f was the fastest, with 24% hydrolysis occurring after 9 h. The hydrolysis rates of the acetate complexes followed the pattern 2c<4c<3c. […] Thus, hydrolysis of the acetate complexes is slowed by an approximate order of magnitude compared to their direct chloro analogs but there is little difference in the present case between 3- and 4-picoline. Steric hindrance therefore predominates over the electronic effects of the methyl group. In the case of the chloride complexes, the 3-pic directs less electron density to the platinum rendering it less nucleophilic relative to the 2-pic and 4-pic. 14 We observe the same trend in the acetate complexes, but the effect is lessened due to the carboxylate group being a weak ligand, with a low trans influence and trans effect.^11

A short description of data set [3]: Solubility of TPA carboxylates, Example 6. Format: physicochemical. To be noted: aqueous; table title ambient temperature, text 37° C.
For data set [4] the following is noted: corresponding diaqua complex; other compounds of the series 2-4c given for comparison (refs 11, 14); cited from earlier work.
For data set [5] the following is noted: cited from earlier work; for k1, rate constant for the first aquation step: literature values of other platinum compounds.
For another data set, the system named is CH1. Put plainly: Growth inhibition in human ovarian cancer cell line panel, 96 h exposure. The conditions noted are these: for CH1 RF: RF = (IC50 Resistant)/(IC50 Sensitive). Format: cell-based. As to the method: (§1) It is noteworthy that the acetate compounds maintain cytotoxicity with low resistance factors in all cases. The trans-[Pt(OAc)2(NH3)2] compound is also very water-soluble but the cytotoxicity of >100 μM confirms the requirement for a planar amine to enhance cytotoxicity in the trans geometry.

A further data set relates to 41M. Described as above. In kind it is cell-based. The conditions noted are these: for 41M RF: RF = (IC50 Resistant)/(IC50 Sensitive). How it is done: as §1
The next data set deals with A2780. The description is as above. In kind it is cell-based. To be noted: for A2780 RF: RF = (IC50 Resistant)/(IC50 Sensitive). As to the method:
as §1

On to `Cc1ccccn1.N.[Cl][Pt][Cl]` [2-pic], for which the “k1, first hydrolysis step to the monoaqua complex” value (from here on “k1, first hydrolysis step”) in data set [1] was 2.6e-05 s⁻¹.

Take `CC(=O)[O-].CC(=O)[O-].Cc1ccccn1.N.[Pt+2]` [2c, trans-[Pt(OAc)2(NH3)(2-pic)]]: in data set [2], the “hydrolysis occurring after 9 h” value was determined as 4% and the “k1, initial hydrolysis rate constant” value was found to be 1.07e-06 s⁻¹. For the same molecule, the “Solubility (mg/mL), TPA Acetates” value in data set [3] came to 10 mg/mL. Further, in data set [4], the pKa1 is 4.03 and the pKa2 was 7.1.

`Cc1cccnc1.N.[Cl][Pt][Cl]` [3-pic]: the “k1, first hydrolysis step” value in data set [1] was 0.000127 s⁻¹.

For `CC(=O)[O][Pt][O]C(C)=O.Cc1cccnc1.N` [3c], the “k1, initial hydrolysis rate constant” value in data set [2] is 3.52e-06 s⁻¹. In addition, the “Solubility (mg/mL), TPA Acetates” value in data set [3] was determined as 11.4 mg/mL. Also, in data set [4], the pKa1 is 3.97 and the pKa2 is 6.78.

Turning to `Cc1ccncc1.N.[Cl][Pt][Cl]` [4-pic], in data set [1], the “k1, first hydrolysis step” value was 5.2e-05 s⁻¹.

With `CC(=O)[O][Pt][O]C(C)=O.Cc1ccncc1.N` [4c], the “k1, initial hydrolysis rate constant” value in data set [2] is 3.26e-06 s⁻¹. In data set [3], the “Solubility (mg/mL), TPA Acetates” value is reported as 13.2 mg/mL. Further, in data set [4], the pKa1 was 3.94 and the pKa2 is reported as 6.88.

As to `Cc1ccncc1.N.O=C(CO)[O][Pt][O]C(=O)CO` [4d, trans-[Pt(OAcOH)2(NH3)(4-pic)]], the “k1, initial hydrolysis rate constant” value in data set [2] amounted to 5.61e-06 s⁻¹.

With `Cc1ccncc1.N.O=C([O-])C(F)(F)F.O=C([O-])C(F)(F)F.[Pt+2]` [4g, trans-[Pt(Tfa)2(NH3)(4-pic)]], the “Solubility (mg/mL), TPA Substituted Carboxylates” value in data set [3] is given as “Insoluble”.

For the molecule `Cc1ccncc1.N.O=C([O-])c1ccccc1.O=C([O-])c1ccccc1.[Pt+2]` [4h, trans-[Pt(OBz)2(NH3)(4-pic)]], the “Solubility (mg/mL), TPA Substituted Carboxylates” value in data set [3] was “Insoluble”.

In the case of `[NH2][Pt]1([NH2])[O]C(=O)C2(CCC2)C(=O)[O]1` [Carboplatin, cis-[Pt(CBDCA)(NH3)2]], the hydrolysis rate constant in data set [5] (aqueous solution) is under 5e-09 s⁻¹. Besides, in data set [5], the “k1, rate constant for the first aquation step” value (from here on “k1, rate constant”) is listed as <10^−8 s^−1. For the same molecule, the hydrolysis rate in data set [5] (phosphate buffer at 310 K) was 7.2e-07 s⁻¹.

As for `N.N.[Cl][Pt][Cl]` [Cisplatin, cis-[PtCl2(NH3)2], reference compound], the hydrolysis rate in data set [1] (at 20° C., literature) was 5.18e-05 s⁻¹. Further, in data set [5], the “k1, rate constant” value was 5.18e-05 s⁻¹. In the data set on CH1, the IC50 came to 0.1 µM and the “CH1 RF” value is reported as “(6.7)”. In the data set with 41M, it took 1.4 µM to reach half-maximal inhibition (IC50) and the “41M RF” value is recorded as “(6.1)”.

Take `NCCNCCN.[Cl-].[Pt+2]` [[PtCl(dien)]+]: in data set [5], the “k1, rate constant” value is “(6.50 ± 0.13) × 10^−5 s^−1”.

Regarding `CCC[NH][Pt]([NH]CCC)([O]C(=O)CCl)[O]C(=O)CCl` [cis-[Pt(PrNH2)2(ClCH2CO2)2]], the “rate constant of substitution by water of the first carboxylate ligand” value in data set [5] (cis carboxylate complex, literature) was 4.38e-05 s⁻¹.

With trans-[Pt(OAcCl)2(NH3)(4-pic)] [4f], the “hydrolysis occurring after 9 h” value in data set [2] stood at 24%. Moreover, in data set [3], the “Solubility (mg/mL), TPA Substituted Carboxylates” value is reported as 0.29 mg/mL.

As for “trans-[diacetato(ammine)(quinoline)platinum(II)] [trans-[Pt(OAc)2(NH3)(quin)]]”, in the data set on CH1, the midpoint of inhibition, the IC50, lay at 17 µM and the “CH1 RF” value is “(0.48)”. In addition, in the data set with A2780, the IC50 was determined as 13 µM and the “A2780 RF” value was “(1.46)”. Besides, in the data set on 41M, the IC50 came out at 22 µM and the “41M RF” value is recorded as “(1.00)”.

For the molecule “trans-[diacetatobis(pyridine)platinum(II)] [trans-[Pt(OAc)2(py)2]]”, in the data set on CH1, inhibition was half-maximal at 19 µM (IC50) and the “CH1 RF” value was “(0.22)”. Moreover, in the data set with A2780, the IC50 amounted to 12.8 µM and the “A2780 RF” value is “(0.90)”. Also, in the data set on 41M, inhibition was half-maximal at 14 µM (IC50) and the “41M RF” value is listed as “(0.32)”.
